Entries after “also recorded” stand apart in the source; their conditions may differ.
Tests used:
[1] = tested on: cytolytic T lymphocytes; conditions: MAGEA4-derived paMAPs; cited from earlier work
[2] = tested on: CD8+ T cells; experiment: FEST assay (functional expansion of specific T cells, TCR Vβ CDR3 sequencing); type: cell-based, human; conditions: for Number of TCRβ clonotypes specifically expanded: FEST assay, donor D12, stimulation with a single peptide or a pool; for TCRß clonotype (TCRß CDR3 sequence) amplified: Table 3B, in vitro stimulation with peptide alone or pool, donor D12
Procedure: In vitro peptide-specific T cell expansion. Peptide-specific CD8^+ T cells from 4 healthy donors were expanded in vitro (D11, D12, D13, and D14). The expanded cells from D12 were used for FEST and tetramer staining assays, whereas the expanded cells from D11, D13, and D14 were used only for tetramer staining assays.
T cells were cultured as previously described, with minor modifications (Danilova et al., 2018). Briefly, on day 0, thawed PBMCs from each healthy donor (BioIVT) were T cell-enriched using the Human Pan T cell isolation kit (Miltenyi Biotec). T cells were resuspended at 2×10^6/mL in AIM V media supplemented with 50 μg/mL gentamicin (ThermoFisher Scientific) and 1% HEPES. The T cell-negative fraction was irradiated at 30 Gy, washed, and resuspended at 2×10^6/mL in AIM V media supplemented with 50 μg/mL gentamicin and 1% HEPES. 2.5 ml per well of both T cells and irradiated T cell-depleted cells were added to a 6-well plate, along with either a peptide alone, a peptide pool (up to 6 MAPs per pool, 1 μg/mL final concentration for each MAP) or without peptide. Cells were cultured for 10 days at 37° C., 5% CO2. On day 3 and 7, half the culture media was replaced with fresh culture media containing 100 IU/mL IL-2, 50 ng/mL IL-7, and 50 ng/mL IL-15 (day 3) and 200 IU/mL IL-2, 50 ng/mL IL-7, and 50 ng/mL IL-15 (day 7). On day 10, thawed PBMCs from the same donor were used to generate a new batch of T cell-depleted cells. These cells were irradiated at 30 Gy and added to cultures at a 1:1 T cell:non-T cell ratio, along with 1 μg/mL of relevant peptide(s) or without peptide. On day 13 and 17, at least half the culture media was replaced with fresh culture media (final concentrations: 100 IU/mL IL-2, 25 ng/mL IL-7, and 25 ng/mL IL-15). On day 20, cells were harvested to perform tetramer staining and/or FEST assays.
FEST assays. For FEST assays, CD8^+ cells were further isolated using the Human CD8^+ T Cell Isolation Kit (Miltenyi Biotec). As a negative control, CD8^+ T cells were also isolated from freshly thawed uncultured PBMCs of the same healthy donor. DNA was extracted from CD8^+ T cells using a QIAGEN DNA blood mini kit (QIAGEN). TCR Vβ CDR3 sequencing was performed using the survey resolution of the immunoSEQ platform (Adaptive Biotechnologies). Raw data exported from the immunoSEQ portal were processed with the FEST web tool (www.stat-apps.onc.jhmi.edu/FEST).
Given that paMAPs are appealing targets for immunotherapy, their immunogenicity was tested using in vitro T cell assays with peripheral blood mononuclear cells (PBMCs) from healthy donors. paMAPs were prioritized based on four criteria: i) the immunogenicity score predicted by Repitope, a machine learning algorithm that uses public T-cell receptor (TCR) databases to predict a probability of T cell response (Ogishi and Yotsuyanagi, 2019), ii) the HLA allotype presenting the paMAP (HLAA*02:01 or HLA-B*53:01 shared by the iPSCs and PBMCs donors), iii) expression in minimum 10% of the samples in at least one TOGA cancer type (FIG. 3), and iv) novel MAP status. The […] T cell response against 11 paMAPs was tested using peptide-HLA tetramer staining and/or more sensitive functional expansion of specific T cells (FEST) assays (Danilova et al., 2018). In FEST assays, TCR sequencing is performed on T cells stimulated or not with synthetic paMAPs. T cells were stimulated in vitro with autologous T cell-depleted PBMCs pulsed with individual or pooled (n=5 or 6) paMAPs (Tables 3A-B).

[3] = tested on: CD8+ T cells; experiment: Peptide-HLA tetramer staining after in vitro peptide-specific T cell expansion; type: cell-based, human; conditions: healthy donor PBMCs after 20 days in vitro stimulation
Procedure: T cells were resuspended at 2×10^6/mL in AIM V media supplemented with 50 μg/mL gentamicin (ThermoFisher Scientific) and 1% HEPES. […] Cells were cultured for 10 days at 37° C., 5% CO2. On day 3 and 7, half the culture media was replaced with fresh culture media containing 100 IU/mL IL-2, 50 ng/mL IL-7, and 50 ng/mL IL-15 (day 3) and 200 IU/mL IL-2, 50 ng/mL IL-7, and 50 ng/mL IL-15 (day 7). On day 10, thawed PBMCs from the same donor were used to generate a new batch of T cell-depleted cells.

[4] = tested on: iPSCs; experiment: Flow cytometry of surface HLA-A,B,C (QIFIKIT) and pluripotency markers on IFN-γ-treated iPSCs; type: cell-based, human; conditions: 40 ng/mL IFN-γ, 72 h
Procedure: (§1) hiPSC22 cells derived from adult human skin fibroblasts using defective polycistronic retroviruses expressing OCT4, SOX2, KLF4, and c-MYC were obtained from Takara Bio (Cellartis human iPS cell line 22). hiPSC22 cells were cultured in the Cellartis® DEF-CS™ 500 Basal Medium with Additives (Takara Bio) on coated (Cellartis DEF-CS 500 COAT-1, Takara Bio) cell culture vessels according to the manufacturer's instructions. Fibro-iPSC.1 and Fibro-iPSC.2 cells are biological replicates of the same iPS cell line reprogrammed from adult human dermal fibroblasts using lentiviruses expressing OCT4, SOX2, NANOG, and LIN28, as per (Hong et al., 2011), and were provided by Dr. Mick Bathia (McMaster University, Ontario, Canada). […]
Single-cell suspensions were stained with PerCP-Cy5.5 Mouse anti-Oct3/4, PE Mouse anti-SSEA-1, Alexa Fluor 647 Mouse anti-SSEA-4 antibodies or the respective isotypes (Human and Mouse Pluripotent Stem Cell Analysis Kit, BD Biosciences), APC/Cyanine7 anti-human/mouse SSEA-3 (BioLegend) or the APC-Cy™7 Rat IgM, K Isotype Control (BD Biosciences) according to the manufacturers' instructions. Surface HLA-A,B,C molecules were quantified using a QIFIKIT (FITC conjugate, Agilent Dako) as per the manufacturer's instructions. Flow cytometry experiments were performed on a ZE5 (Bio-Rad), and data were analyzed using the FlowJo software. […]

[5] = tested on: iPSCs; experiment: MS-based identification of MHC I-associated peptides from iPSCs; parameters: species or system human; conditions: 40 ng/mL IFN-γ, 72 h
Procedure: as §1, with “Canada). Fibro-iPSC.1 and Fibro-iPSC.2 were cultured on Matrigel® (Corning, diluted in DMEM/F-12 from Gibco)-coated cell culture vessels in mTeSR1 medium ([…]), according to the manufacturer's instructions. All iPSCs were passaged using the Gentle Cell Dissociation Reagent ([…]) or were dissociated to single cells using TrypLE Express (Gibco) and washed with DPBS (Gibco) for downstream analyses. After removing 3-5×10^6 iPSCs for RNA-seq and 5×10^6 cells for flow cytometry, iPSCs were pelleted and stored at −80 degrees C. until MS analysis.” for “Canada).”

Substance: KVLEHVVRV (listed as Homo sapiens) [previously reported paMAP derived from MAGEA4]
- Immunogenic in previous studies [1]: immunogenic in previous studies

Substance: LPMWKALLF (listed as Homo sapiens) [paMAP]
- Number of TCRβ clonotypes specifically expanded [2]: two to four
- TCRß clonotype (TCRß CDR3 sequence) amplified ([2]; listed as pa_06): CASSGPGDQPQHF (SEQ ID NO: 83); also recorded: CASSEWGSRAGGGDTQYF (SEQ ID NO: 84)

Substance: FLLPGVLLSEA (listed as Homo sapiens) [previously reported saMAP from UGT3A2]
- T-cell response (immunogenicity) by peptide-HLA tetramer staining [3]: immunogenic in one donor

Substance: VTLSTYFHV (listed as Homo sapiens) [paMAP]
- Number of TCRβ clonotypes specifically expanded [2]: two to four
- TCRß clonotype (TCRß CDR3 sequence) amplified ([2]; listed as pa_10): CASSKWGSYGYTF (SEQ ID NO: 75); also recorded: CASSLPDTTYEQYF (SEQ ID NO: 76)

Substance: GVYDGREHTV (listed as Homo sapiens) [previously reported paMAP derived from MAGEA4]
- Immunogenic in previous studies [1]: immunogenic in previous studies

Substance: KLAQIIRQV (listed as Homo sapiens) [paMAP]
- T-cell response (immunogenicity) by peptide-HLA tetramer staining [3]: one out of four donors

Substance: IFN-γ: recombinant human IFN-γ (Gibco) used to raise MHC I on iPSCs
- Increase in surface HLA-A/B/C levels ([4]; average of three fibroblast-derived iPSC samples): 34 fold
- Expression of canonical pluripotency markers ([4]; iPSCs): without affecting the expression of canonical pluripotency markers
- More unique MAPs detected than for untreated iPSCs [5]: 1.8-4.5 fold

Substance: ALYPQPPTV (listed as Homo sapiens) [paMAP]
- Number of TCRβ clonotypes specifically expanded [2]: two to four
- TCRß clonotype (TCRß CDR3 sequence) amplified ([2]; listed as pa_11): CASSYRTGSAEAFF (SEQ ID NO: 77); also recorded: CASSLGGAYEQYF (SEQ ID NO: 78); also recorded: CASSYPQGGEQFF (SEQ ID NO: 79); also recorded: CATSRGTGVNTEAFF (SEQ ID NO: 80)

Substance: SLLGSSEILEV (listed as Homo sapiens) [paMAP]
- T-cell response (immunogenicity) by peptide-HLA tetramer staining [3]: one out of four donors
- Number of TCRβ clonotypes specifically expanded [2]: two to four
- TCRß clonotype (TCRß CDR3 sequence) amplified ([2]; listed as pa_12): CASSSRTDTYSPLHF (SEQ ID NO: 81); also recorded: CASSLGRWNSPLHF (SEQ ID NO: 82)
